From US20210315971A1, “COMPOSITIONS ACTING AS PRO(RENIN) RECEPTOR ANTAGONISTS FOR THE TREATMENT OF NON-ALCOHOLIC FATTY LIVER DISEASE” (Board of Regents of the Nevada System of Higher Education …, priority 2018, published 2021)

Key:
Type in all cases: in vivo
Wild-type C57Bl/6J mice = experiment: High fat diet induced liver steatosis in mice, Oil Red O staining of liver; settings: HFD 6 weeks; PRO20 27 ug/kg/d by subcutaneous osmotic pump for 4 weeks; HFD saline 17.57±3.23%, NFD 3.51±0.86%; N=4 mice/group
Procedure: Non-alcoholic fatty liver steatohepatitis (NASH) represents a diverse array of liver damage linked to obesity, metabolic syndrome, and diabetes. The mechanisms and the treatment for NASH remains lacking. The inventors hypothesized that PRR antagonism using PRO20 prevents NASH development. FIG. 6 illustrates subcutaneous administration of PRR antagonist, PRO20, attenuates high fat diet induced-liver steatosis in mice. Wild-type C57Bl/6J mice were treated with either with either HFD (60% calories from fat) or normal fat chow (NFD, 10% calories from fat) with matching calories for 6 weeks. Two week following diet modification, HFD mice were implanted with subcutaneous osmotic pump containing either PRO20 (27 ug/kg/d) or saline for 4 weeks. Liver tissues were processed for Oil Red 0 staining for lipid accumulation and quantified using Image)/FIJI software. Data were presented % of ORO staining to the total area. N=4 mice/group. *p<0.01 vs. NFD; #P<0.05 vs. HFD Saline; One-way ANOVA. 6 weeks of HFD (17.57±3.23%) induced a significant elevation on liver ORO staining compared with the liver from mice fed with NFD (3.51±0.86%, p=0.005). […] FIG. 7 illustrates subcutaneous administration of PRR antagonist, PRO20, attenuates peroxisome proliferator-activated receptor gamma (PPARγ).

[1] = system: peroxisome proliferator-activated receptor gamma (PPARγ); experiment: Liver PPARγ in high fat diet mice; settings: subcutaneous administration, high fat diet mice (FIG. 7)
Excerpt: FIG. 7 illustrates subcutaneous administration of PRR antagonist, PRO20, attenuates peroxisome proliferator-activated receptor gamma (PPARγ). […] PRO20 treatment prevents the upregulating of PPARγ in the liver supporting a mechanism for the beneficial role of PRO20 in preventing fatty liver development.
Non-alcoholic fatty liver steatohepatitis (NASH) represents a diverse array of liver damage linked to obesity, metabolic syndrome, and diabetes. The mechanisms and the treatment for NASH remains lacking. The inventors hypothesized that PRR antagonism using PRO20 prevents NASH development. FIG. 6 illustrates subcutaneous administration of PRR antagonist, PRO20, attenuates high fat diet induced-liver steatosis in mice. Wild-type C57Bl/6J mice were treated with either with either HFD (60% calories from fat) or normal fat chow (NFD, 10% calories from fat) with matching calories for 6 weeks. Two week following diet modification, HFD mice were implanted with subcutaneous osmotic pump containing either PRO20 (27 ug/kg/d) or saline for 4 weeks. Liver tissues were processed for Oil Red 0 staining for lipid accumulation and quantified using Image)/FIJI software. Data were presented % of ORO staining to the total area. N=4 mice/group. *p<0.01 vs. NFD; #P<0.05 vs. HFD Saline; One-way ANOVA. […]

[2] = system: liver renin-angiotensin system; experiment: Liver renin-angiotensin system activation induced by high fat diet; settings: subcutaneous administration, high fat diet mice (FIG. 8)

## LPTDTTTFKRIFLKRMPSI (Synthetic (pro)renin receptor agonist peptide) [PRO20]
Wild-type C57Bl/6J mice
  % of ORO staining to the total area (liver lipid accumulation): 7.34±1.96%
[1]
  Effect on liver PPARγ: attenuates
[2]
  Effect on liver renin-angiotensin system activation induced by high fat diet: prevents activation
